Experimental data reported in US20260234124A1, “Substituted Pyrazolyl-Pyridinyl Compounds as Ligand Directed Degraders of IRAK3” (Celgene Corporation, priority 2022, published 2026).

Molecular target: T1, IRAK3-ePL (Homo sapiens, UniProt Q9Y616)
T1 construct: expressed in transfected cells; host or cells: 293T CRBN OE/GSPT1 G575N KI cells, lentiviral transduction, puromycin selection
Assay: IRAK3-ePL overexpressing degradation assay
Format: cell-based
Settings: IRAK3-ePL Lenti-X 293T CRBN/GSPT1 G575N cells, overnight incubation, top dose 10 μM; for Dmax: HEK-293T, maximum percentage loss of target protein; for DC50: read-out: IRAK3 ePL degradation EC50
Experimental: Example B1. IRAK3-ePL Overexpressing Degradation Assay
Stable cell lines were generated by the following protocol. 3×10^5 Lenti-X 293T cells (Clonetech) were plated in 0.8 mL of media in a 12-well plate and incubated overnight at 37° C./5% CO2. Packaging plasmid (0.4 μg, pMD), envelope plasmid (0.4 μg, pSP), and lentiviral transfer IRAK3-ePL plasmid (0.8 μg, IRAK3 sequence NM_007199.3) were mixed in 0.1 mL of Opti-MEM and incubated for 5 min. Simultaneously, 2.4 μL of Lipofectamine 2000 (Invitrogen) was added to 0.1 mL of Opti-MEM (Gibco) and incubated for 5 min. The plasmid DNA and lipofectamine were combined and the mixture was allowed to incubate for 20 min. DNA:Lipofectamine Opti-MEM mixtures were then added to previously plated cells dropwise and the cells were incubated for ~16 h at 37° C./5% CO2. Following incubation, the media was removed and 1.2 mL of fresh media was added per well. Lenti-X 293T cells were incubated for ~30 h at 37° C./5% CO2. […] Following incubation, media was removed from the Lenti-X 293T wells and passed through a […]. Part of the viral supernatant was used to transduce cells and the rest was stored at −80° C. Viruses were then added individually (0.5 mL virus) to each well of the 293T^CRBN OE/GSPT1 G575N KI cells, followed by addition of polybrene (10 mg/mL Millipore) to each well at a final concentration of 5.0 μg/mL. Cells were incubated for ~24 h at 37° C./5% CO2. After aspirating media off plates, cells were washed with DPBS, trypsinized and plated in a 10 cm dish in 15 mL of media and 1 μg/mL puromycin. Following incubation of cells for ~72 h at 37° C./5% CO2, media was aspirated off plates, and cells were washed with DPBS and trypsinized. The cells were plated in a 15 cm dish in 40 mL of media with 1.0 μg/mL Puromycin (Gibco) and incubated for ~72 h at 37° C./5% CO2. Following incubation, media was removed and cells were washed with DPBS and trypsinized. The majority of cells were resuspended in Invitrogen freezing media and stored away (~6-8×10^6 cells/vial).
IRAK3-ePL cellular dose response curve degradation assays were performed by the following protocol. Compounds to be tested were dispensed into a white 384-well tissue-culture treated plate using an acoustic liquid handler. Dilutions were prepared based on a 25 μL assay volume in duplicate 10 point 3-fold serial dilutions starting with a 10 μM dose. Negative control wells were included, which only contain 0.2% DMSO to calculate 100% signal. Positive control wells containing 30 μM Ataluren (luciferase inhibitor) were included to calculate the background signal level. All wells were backfilled to a final DMSO concentration of 0.2% to ensure DMSO uniformity across wells. IRAK3-ePL expressing cells (IRAK3-ePL Lenti-X 293T^CRBN/GSPT1 G575N) were washed, trypsinized, counted, and resuspended in fresh DMEM (Gibco) to give a cell concentration of 200,000 cells/mL. 25 μL of cells (5,000 cells/well) were dispensed into the wells of the 384-well plate prespotted with compounds in the previous step and incubated overnight at 37° C./5% CO2. Following incubation, the 384-well plate was taken out of the incubator and left at room temperature for 30 min. InCELL hunter reagent was prepared according to manufacturer's instructions (EA reagent, lysis buffer, and substrate reagent in a 1:1:4 ratio, Cat #96-0002, DiscoverX), which was added to the 384-well plate 25 μL per well. Following the incubation of the plate for 1 h at room temperature, the luminescence signal was read using a ViewLux plate reader. Data was processed and analyzed in ActivityBase software. In short, the average luminescence values of the positive control wells were subtracted from the rest of the wells for background correction, and all luminescence values were normalized to the DMSO control wells. The average value of the DMSO control wells was set to equal 100% of the relative IRAK3-ePL protein levels. […]

Row | Dmax | DC50 | Structure (SMILES)
1 | 12% | > 10 µM | C[C@@H](Oc1cc(-c2cnn(C3CCN(CCOCCNC(=O)COc4ccc5c(c4)C(=O)N(C4CCC(=O)NC4=O)C5=O)CC3)c2)cnc1N)c1c(Cl)ccc(F)c1Cl (stereo partly drawn) [Compound 14, N-(2-(2-(4-(4-(6-amino-5-((R)-1-(2,6-dichloro-3-fluorophenyl)ethoxy)pyridin-3-yl)-1H-pyrazol-1-yl)piperidin-1-yl)ethoxy)ethyl)-2-((2-(2,6-dioxopiperidin-3-yl)-1,3-dioxoisoindolin-5-yl)oxy)acetamide]
2 | 12% | > 10 µM | C[C@@H](Oc1cc(-c2cnn(C3CCN(CCNC(=O)COc4cccc5c4C(=O)N(C4CCC(=O)NC4=O)C5=O)CC3)c2)cnc1N)c1c(Cl)ccc(F)c1Cl (stereo partly drawn) [Compound 8, N-(2-(4-(4-(6-amino-5-((R)-1-(2,6-dichloro-3-fluorophenyl)ethoxy)pyridin-3-yl)-1H-pyrazol-1-yl)piperidin-1-yl)ethyl)-2-((2-(2,6-dioxopiperidin-3-yl)-1,3-dioxoisoindolin-4-yl)oxy)acetamide]
3 | 12% | > 10 µM | C[C@@H](Oc1cc(-c2cnn(C3CCN(CCOCCOCCOCCNC(=O)COc4cccc5c4C(=O)N(C4CCC(=O)NC4=O)C5=O)CC3)c2)cnc1N)c1c(Cl)ccc(F)c1Cl (stereo partly drawn) [Compound 11, N-(2-(2-(2-(2-(4-(4-(6-amino-5-((R)-1-(2,6-dichloro-3-fluorophenyl)ethoxy)pyridin-3-yl)-1H-pyrazol-1-yl)piperidin-1-yl)ethoxy)ethoxy)ethoxy)ethyl)-2-((2-(2,6-dioxopiperidin-3-yl)-1,3-dioxoisoindolin-4-yl)oxy)acetamide]
4 | 78% | 0.066 µM | C[C@@H](Oc1cc(-c2cnn(C3CCN(C4CCC5(CC4)CCN(C(=O)c4cccc(NC6CCC(=O)NC6=O)c4)CC5)CC3)c2)cnc1N)c1c(Cl)ccc(F)c1Cl (stereo partly drawn) [Compound 22, 3-((3-(9-(4-(4-(6-Amino-5-((R)-1-(2,6-dichloro-3-fluorophenyl)ethoxy)pyridin-3-yl)-1H-pyrazol-1-yl)piperidin-1-yl)-3-azaspiro[5.5]undecane-3-carbonyl)phenyl)amino)piperidine-2,6-dione]
5 | 22% | > 10 µM | C[C@@H](Oc1cc(-c2cnn(C3CCN(CCOCCOCCNC(=O)COc4cccc5c4C(=O)N(C4CCC(=O)NC4=O)C5=O)CC3)c2)cnc1N)c1c(Cl)ccc(F)c1Cl (stereo partly drawn) [Compound 10, N-(2-(2-(2-(4-(4-(6-amino-5-((R)-1-(2,6-dichloro-3-fluorophenyl)ethoxy)pyridin-3-yl)-1H-pyrazol-1-yl)piperidin-1-yl)ethoxy)ethoxy)ethyl)-2-((2-(2,6-dioxopiperidin-3-yl)-1,3-dioxoisoindolin-4-yl)oxy)acetamide]
6 | 18% | > 10 µM | C[C@@H](Oc1cc(-c2cnn(C3CCN(CCOCCOCCOCCOCCNC(=O)COc4ccc5c(c4)C(=O)N(C4CCC(=O)NC4=O)C5=O)CC3)c2)cnc1N)c1c(Cl)ccc(F)c1Cl (stereo partly drawn) [Compound 17, N-(14-(4-(4-(6-amino-5-((R)-1-(2,6-dichloro-3-fluorophenyl)ethoxy)pyridin-3-yl)-1H-pyrazol-1-yl)piperidin-1-yl)-3,6,9,12-tetraoxatetradecyl)-2-((2-(2,6-dioxopiperidin-3-yl)-1,3-dioxoisoindolin-5-yl)oxy)acetamide]
7 | 30% | > 10 µM | C[C@@H](Oc1cc(-c2cnn(C3CCN(CCOCCOCCOCCOCCNC(=O)COc4cccc5c4C(=O)N(C4CCC(=O)NC4=O)C5=O)CC3)c2)cnc1N)c1c(Cl)ccc(F)c1Cl (stereo partly drawn) [Compound 12, N-(14-(4-(4-(6-amino-5-((R)-1-(2,6-dichloro-3-fluorophenyl)ethoxy)pyridin-3-yl)-1H-pyrazol-1-yl)piperidin-1-yl)-3,6,9,12-tetraoxatetradecyl)-2-((2-(2,6-dioxopiperidin-3-yl)-1,3-dioxoisoindolin-4-yl)oxy)acetamide]
8 | 74% | 0.055 µM | C[C@@H](Oc1cc(-c2cnn(C3CCN(C4CCC5(CC4)CCN(C(=O)c4ccc6c(c4)CN(C4CCC(=O)NC4=O)C6=O)CC5)CC3)c2)cnc1N)c1c(Cl)ccc(F)c1Cl (stereo partly drawn) [Compound 20, 3-(5-(9-(4-(4-(6-amino-5-((R)-1-(2,6-dichloro-3-fluorophenyl)ethoxy)pyridin-3-yl)-1H-pyrazol-1-yl)piperidin-1-yl)-3-azaspiro[5.5]undecane-3-carbonyl)-1-oxoisoindolin-2-yl)piperidine-2,6-dione]
9 | 19% | > 10 µM | C[C@@H](Oc1cc(-c2cnn(C3CCN(CCOCCOCCOCCNC(=O)COc4ccc5c(c4)C(=O)N(C4CCC(=O)NC4=O)C5=O)CC3)c2)cnc1N)c1c(Cl)ccc(F)c1Cl (stereo partly drawn) [Compound 16, N-(2-(2-(2-(2-(4-(4-(6-amino-5-((R)-1-(2,6-dichloro-3-fluorophenyl)ethoxy)pyridin-3-yl)-1H-pyrazol-1-yl)piperidin-1-yl)ethoxy)ethoxy)ethoxy)ethyl)-2-((2-(2,6-dioxopiperidin-3-yl)-1,3-dioxoisoindolin-5-yl)oxy)acetamide]
10 | 38% | > 10 µM | Cc1ncsc1-c1ccc(CNC(=O)[C@@H]2C[C@@H](O)CN2C(=O)[C@@H](NC(=O)COCCOCCOCCOCCOCCOCCOCCN2CCC(n3cc(-c4cnc(N)c(O[C@H](C)c5c(Cl)ccc(F)c5Cl)c4)cn3)CC2)C(C)(C)C)cc1 [Compound 7, (2S,4R)-1-((S)-26-(4-(4-(6-amino-5-((R)-1-(2,6-dichloro-3-fluorophenyl)ethoxy)pyridin-3-yl)-1H-pyrazol-1-yl)piperidin-1-yl)-2-(tert-butyl)-4-oxo-6,9,12,15,18,21,24-heptaoxa-3-azahexacosanoyl)-4-hydroxy-N-(4-(4-methylthiazol-5-yl)benzyl)pyrrolidine-2-carboxamide]
11 | 13% | > 10 µM | Cc1ncsc1-c1ccc(CNC(=O)[C@@H]2C[C@@H](O)CN2C(=O)[C@@H](NC(=O)COCCOCCOCCN2CCC(n3cc(-c4cnc(N)c(O[C@H](C)c5c(Cl)ccc(F)c5Cl)c4)cn3)CC2)C(C)(C)C)cc1 [Compound 3, (2S,4R)-1-((S)-14-(4-(4-(6-amino-5-((R)-1-(2,6-dichloro-3-fluorophenyl)ethoxy)pyridin-3-yl)-1H-pyrazol-1-yl)piperidin-1-yl)-2-(tert-butyl)-4-oxo-6,9,12-trioxa-3-azatetradecanoyl)-4-hydroxy-N-(4-(4-methylthiazol-5-yl)benzyl)pyrrolidine-2-carboxamide]
12 | 8% | > 10 µM | Cc1ncsc1-c1ccc(CNC(=O)[C@@H]2C[C@@H](O)CN2C(=O)[C@@H](NC(=O)CCCN2CCC(n3cc(-c4cnc(N)c(O[C@H](C)c5c(Cl)ccc(F)c5Cl)c4)cn3)CC2)C(C)(C)C)cc1 [Compound 1, (2S,4R)-1-((S)-2-(4-(4-(4-(6-amino-5-((R)-1-(2,6-dichloro-3-fluorophenyl)ethoxy)pyridin-3-yl)-1H-pyrazol-1-yl)piperidin-1-yl)butanamido)-3,3-dimethylbutanoyl)-4-hydroxy-N-(4-(4-methylthiazol-5-yl)benzyl)pyrrolidine-2-carboxamide]
